Results from patent publication US11492361B2, “Compounds useful in HIV therapy” (GlaxoSmithKline Intellectual Property Development Limited, priority 2018, dated 2022).
Like-named read-outs stand apart in the source and are kept apart here.

How the values were obtained:
[1] = tested on: cell-associated HIV RNA (HIV gag RNA) in CD4+ T cells; details: background statement, primary cells / resting CD4+ T cells; cited from earlier work
[2] = tested on: Jurkat HIV-luciferase clones; details: background statement; cited from earlier work
[3] = tested on: p100/p52; details: background statement, primary cells; cited from earlier work
[4] = tested on: NFKB2; experiment: NFkB2 gene induction; format: cell-based, human; details: Homo sapiens, CD4+ T, 24 h, read-out: NFkB2 gene induction EC50 (nM)
Procedure: 5×10^5 normal donor CD4 T cells were treated for 24h with serial dilutions of compounds starting at 1.0 μM at 6 fold, 7 places. Total RNA was isolated using the RNEasy Mini kit (Qiagen) per the manufacturer's instructions. The following TaqMan primer probe sets were sourced from Applied Biosystems: Hs00174517_m1 (NFKB2) and Hs02800695 (HPRT1). TaqMan-based real-time PCR (Fast Virus 1-Step Master Mix, Applied Biosystems) was used to amplify host genes of interest. Gene expression was normalized to HPRT1 and comparative threshold cycle (CT) method (ΔΔCT) was used for relative fold change of gene expression as compared to untreated cells. The data was analyzed by QuantStudio3 Real-Time PCR System.

[5] = tested on: p100/p52; experiment: p100/p52 Western blot (WB) assay; format: cell-based, human; details: Homo sapiens, PBMC, 24 h, read-out: p100/p52 Western Blot (WB) EC50 (nM)
Procedure: Cell cultures were set up to evaluate several SMACm compounds. Frozen PBMC cells from healthy donors were thawed and plated in 2 ml deepwell plates at 2×10^6 cells/ml. Serial dilutions of each compound was carried out as a 7 fold 1:6 dilution with the starting final dose of 1000 nM. Cells were then combined with compound and place at 37° for 24 hrs. The following day cells were pelleted and placed at −80 until lysis.
In preparation for cell lysis, the frozen cell pellets and an aliquot of NP40 Cell Lysis Buffer (Invitrogen, Part #FNN0021), as well as an aliquot of 10× Protease Inhibitor Cocktail (Sigma, Part #P-2714) are thawed on ice. Once thawed, the complete lysis buffer is prepared by adding 10% final volume PI cocktail to the NP40 buffer and then adding in sufficient volume of 0.1 M PMSF (Sigma, Part #93482) and 1 M DTT (Sigma, Part #43816) to create a final concentration of 1 mM each in the complete lysis buffer. Cell lysis is then carried out by resuspending each cell pellet in 30 μL per 10^6 cells then incubating on ice for 30 minutes with vigorous vortexing every 10 minutes. The lysed cells are then centrifuged at 13K RPM for 10 minutes at 4° C. in a refrigerated microcentrifuge. The supernatants (lysates) are then transferred into new microcentrifuge tubes and either stored at −80° or utilized immediately for protein concentration and Western blot analysis.
Protein concentration for each lysate is determined using a detergent compatible Bradford assay (Pierce, Part #23246) following the manufacturer's microplate instructions.
Capillary Western analysis were performed using the ProteinSimple Jess System. A total of 1 ug of cell lysate was prepared according to the provided protocol supplied by ProteinSimple. The primary antibody for p100/p52 (Cell, Signaling #3017) is diluted 1:10 for use in the Jess system. The 12-230 kDa Jess Seperation Module capillary cartridges Separation Module (SM-W004) is used in conjunction with the Anti-Rabbit Secondary NIR conjugate (043-819). The Separation module includes prefilled plates that the samples, primary and secondary antibodies, as well as protein normalization reagent and diluents are loaded onto to perform separation and detection. Once the assay has run, the data is then analyzed utilizing the Compass software provided by ProteinSimple.
Alternatively to capillary electrophoresis, traditional immunoblot assays were carried out, 10 μg of cell lysate was loaded per well into 4-20% Tris-Glycine SDS-PAGE gels. Protein from the SDS-PAGE gels were transferred to Turbo Midi PVDF Transfer Packs (BioRad) using the “Mixed MW” protocol for one Midi Format Gel (constant 2.5 A up to 25V, for 7 minutes) of the Trans-Blot Turbo Transfer System (Bio-Rad) with premade Trans-Blot per the manufacturer's instructions. After transfer, PVDF membranes were blocked in 5% bovine serum albumin (BSA) in 1×TBS (BioRad) with 0.1% Tween-20 for 1 hour at room temperature with gentle rocking. Primary antibodies were added and incubated overnight at 4° C. (anti-p100/p52, Cell Signaling Technology #3017, 1:1000; anti-Actin-HRP conjugate, Abcam #49900, 1:30,000). Following primary staining, the membrane washed three times with 1× Tris Buffered Saline (TBS)+0.1% TWEEN® 20 for 10 minutes each wash. After washing, the membrane was incubated in 5% BSA in 1×TBS+0.1% TWEEN® 20 with the appropriate secondary antibody for 2 hours at room temperature. Following secondary stain the membrane was washed twice for 10 minutes with 1×TBS+0.1% TWEEN® 20 followed by a 10-minute wash with 1×TBS. The membrane was then patted dry with filter paper and an image was captured of the undeveloped membrane on the ChemiDoc MP Imaging System using Image Lab software (BioRad). Sufficient ECL reagent (GE Healthcare) was used to cover the membrane and a series of images were taken starting with 0.001 second and doubling to tripling the exposure time until the luminescence from the developed membrane saturated the image. […]

[6] = tested on: Jurkat HIV-luciferase clones; experiment: Jurkat latency reversal assay; format: cell-based; details: Homo sapiens, Jurkat
Method in brief: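 Three pooled Jurkat HIV-luciferase clones (C16, I15, N6; 5,000 cells/well, maintained with 500 nM EFV) exposed to 3-fold, 14-point titrations (10 μM to 2.1 pM, 0.5% DMSO) in duplicate for 48 h at 37 °C. Luciferase luminescence read; EC50 and maximal % activation versus vehicle from four-parameter logistic fit.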

SMILES | HIV caRNA induction [1] | potency in cell line assays / Jurkat (HIV latency reversal) [2] | p100-p52 conversion [3] | EC50 [4] | EC50 [5] | EC50 ([6]; 48 h) | EC50 ([6]; Table 4 summary, read-out: Jurkat EC50)
CC[C@H](NC(=O)[C@H](C)NC)C(=O)N1C[C@@H](O)C[C@H]1Cc1c(-c2[nH]c3cc(F)ccc3c2C[C@@H]2C[C@H](O)CN2C(=O)[C@H](CC)NC(=O)[C@H](C)NC)[nH]c2cc(F)ccc12 [Birinapant TL32711] | not potent | not potent | not potent | – | – | – | –
CN[C@@H](C)C(=O)N[C@H]1CCS[C@H]2CC(C)(C)[C@@H](C(=O)N[C@H]3c4ccccc4C[C@H]3OCCCCCCO[C@@H]3Cc4ccccc4[C@@H]3NC(=O)[C@H]3N4C(=O)[C@@H](NC(=O)[C@H](C)NC)CCS[C@H]4CC3(C)C)N2C1=O [compound 20, (4S,4′S,7S,7′S,9aS,9a′S)-N,N′-((1S,1′S,2R,2′R)-(hexane-1,6-diylbis(oxy))bis(2,3-dihydro-1H-indene-2,1-diyl))bis(8,8-dimethyl-4-((S)-2-(methylamino)propanamido)-5-oxooctahydropyrrolo[2,1-b][1,3]thiazepine-7-carboxamide)] | – | – | – | 75 nM | 3.1 nM | 0.0119 µM | 0.0119 µM
